Question: With `O=C1CC2(CCSC2)C(=O)O1` (configuration not stated) as the compound, how does the melting point read?
Answer: Its melting point is 83 to 85 °C.

Question: Which melting point does the source give for `CC1CC(=O)c2cccc(Br)c21` (configuration not stated) here?
Answer: Its melting point is 45 to 47 °C.

Question: Which melting point does the source give for `NC(=O)c1cc(S(=O)(=O)NCC(=O)O)c[nH]1` here?
Answer: The melting point was 279 to 281 °C.

Question: Which melting point does the source give for `CN1CC(=O)Nc2cccnc21` here?
Answer: Its melting point is 161 to 163 °C.

Question: Which melting point does the source give for `CC1CCC(N)(C(=O)O)CC1` (configuration not stated) here?
Answer: The melting point was 200 to 202 °C.

Question: With `COc1ccc(C)cc1CC(=O)O` as the compound, how does the melting point read?
Answer: The melting point was 131 to 133 °C.

Question: Which melting point does the source give for `O=C(CBr)c1ccc2c(c1)CCC2` here?
Answer: Its melting point is 57 to 59 °C.

Question: For `COc1ccc(N)c(OC)n1`, which melting point is on record?
Answer: The melting point was 210 to 212 °C.

Question: Which melting point does the source give for `CS(=O)(=O)Nc1ccc(S(=O)(=O)Cl)cc1` here?
Answer: The melting point was 141 to 143 °C.

Question: With `COC(=O)c1nc(-c2ccccc2)oc1N` as the compound, how does the melting point read?
Answer: The melting point was 193 to 195 °C.

Question: For `Nc1ccc2c(c1)N(CCO)CC2`, which melting point is on record?
Answer: Its melting point is 59 to 61 °C.

Question: For `O=C(O)c1ccc(COc2cccc(Br)c2)o1`, which melting point is on record?
Answer: Its melting point is 171 to 173 °C.

Question: For `CNCc1ccc(OC)c(O)c1`, which melting point is on record?
Answer: The melting point was 141 to 143 °C.

Question: For `COC(=O)c1c[nH]c(=O)c(N)c1`, which melting point is on record?
Answer: The melting point was 209 to 211 °C.

Question: Which melting point does the source give for `O=C(O)c1ccc(Cl)c(NS(=O)(=O)c2ccc(F)cc2)c1` here?
Answer: The melting point was 211 to 213 °C.

Question: Which melting point does the source give for `Cn1cc(C(=O)O)c(C(F)(F)F)n1` here?
Answer: Its melting point is 210 to 212 °C.

Question: For `CCN(CC)Cc1ccc(O)c2ncccc12`, which melting point is on record?
Answer: The melting point was 60 to 62 °C.

Question: Which melting point does the source give for `Cc1nn(-c2ccccc2)c(C)c1N` here?
Answer: The melting point was 61 to 63 °C.

Question: Which melting point does the source give for `C=CS(=O)(=O)c1cc(F)cc([N+](=O)[O-])c1` here?
Answer: Its melting point is 90 to 92 °C.

Question: With `N#Cc1cnc(C(=O)O)c(Cl)c1` as the compound, how does the melting point read?
Answer: The melting point was 149 to 151 °C.

Question: Which melting point does the source give for `N#CCCn1c(S)nc2ccccc21` here?
Answer: The melting point was 154 to 158 °C.

Question: With `N#Cc1ccc(Cl)nn1` as the compound, how does the melting point read?
Answer: Its melting point is 83 to 85 °C.

Question: With `O=C(O)CCN1C(=O)NC2(CCCC2)C1=O` as the compound, how does the melting point read?
Answer: Its melting point is 167 to 169 °C.

Question: For `CC(C)(C)OC(=O)N1CCN(C(N)=O)C(C(=O)O)C1` (configuration not stated), which melting point is on record?
Answer: The melting point was 158 to 160 °C.

Question: With `CC(C)(C)OC(=O)NC(CN)c1ccccc1` (configuration not stated) as the compound, how does the melting point read?
Answer: Its melting point is 65 to 67 °C.

Question: With `C=CC(=O)Nc1ccc(C(=O)O)cc1` as the compound, how does the melting point read?
Answer: The melting point was 246 to 248 °C.

Question: Which melting point does the source give for `N#CCOc1cc(F)ccc1N` here?
Answer: Its melting point is 59 to 61 °C.

Question: For `N#Cc1ccc(C(=O)NN)cc1`, which melting point is on record?
Answer: Its melting point is 195 to 197 °C.

Question: For `O=C(O)CCc1nnc(-c2cc(F)ccc2Br)o1`, which melting point is on record?
Answer: The melting point was 153 to 155 °C.

Question: With `Cc1ccc(N2C(=O)C=CC2=O)cc1` as the compound, how does the melting point read?
Answer: Its melting point is 151 to 153 °C.

Question: For `CN1CCc2nc3ccccc3c(C(=O)O)c2C1`, which melting point is on record?
Answer: The melting point was 254 to 256 °C.

Question: With `O=S(=O)(Cl)c1ccc2nc(Cl)ccc2c1` as the compound, how does the melting point read?
Answer: The melting point was 138 to 140 °C.

Question: Which melting point does the source give for `COc1ccc(OCCC(=O)O)cc1` here?
Answer: Its melting point is 104 to 106 °C.

Question: Which melting point does the source give for `O=C(O)c1cn(-c2ccccc2)nc1-c1ccc(Br)cc1` here?
Answer: Its melting point is 262 to 264 °C.

Question: For `Cn1ccnc1-c1ccc([N+](=O)[O-])cc1`, which melting point is on record?
Answer: The melting point was 107 to 109 °C.

Question: With `CC(C(=O)O)C(C)(C)C` (configuration not stated) as the compound, how does the melting point read?
Answer: The melting point was 34 to 36 °C.

Question: Which melting point does the source give for `FC(F)(F)c1ccc2sc(C3CCNCC3)nc2c1` here?
Answer: The melting point was 71 to 73 °C.

Question: For `CC(C)C1OC(N)=NC1=O` (configuration not stated), which melting point is on record?
Answer: The melting point was 219 to 221 °C.

Question: For `NC(=O)Nc1ccccc1-c1ccccc1`, which melting point is on record?
Answer: The melting point was 155 to 157 °C.

Question: For `Cc1cc2cc[nH]c(=O)c2n1C`, which melting point is on record?
Answer: The melting point was 224 to 226 °C.

Question: For `Cc1nnc(CCl)o1`, which melting point is on record?
Answer: Its melting point is 32 to 40 °C.

Question: With `CN(C)c1ccc(C2CC2C(=O)O)cc1` (configuration not stated) as the compound, how does the melting point read?
Answer: Its melting point is 119 to 121 °C.

Question: With `COc1ccc(CC(=O)NCc2ccc(C(=O)O)cc2)cc1` as the compound, how does the melting point read?
Answer: The melting point was 229 to 231 °C.

Question: With `Nc1ccc(S(=O)(=O)Nc2ccc([N+](=O)[O-])cc2)cc1` as the compound, how does the melting point read?
Answer: The melting point was 162 to 164 °C.

Question: For `COC(=O)c1cnc2c(c1)c(C)nn2C`, which melting point is on record?
Answer: The melting point was 129 to 131 °C.

Question: For `COC(=O)c1cc(C(=O)O)ccn1`, which melting point is on record?
Answer: Its melting point is 233 to 235 °C.

Question: For `COC(=O)c1sccc1N=[N+]=[N-]`, which melting point is on record?
Answer: The melting point was 69 to 71 °C.

Question: Which melting point does the source give for `Nc1ccc(N2CCCC2=O)c(Cl)c1` here?
Answer: Its melting point is 184 to 186 °C.

Question: Which melting point does the source give for `COC(=O)c1snc(-c2ccccc2)c1N` here?
Answer: Its melting point is 114 to 116 °C.

Question: With `CCN(c1ccccc1)S(=O)(=O)c1ccc(NN)nc1` as the compound, how does the melting point read?
Answer: The melting point was 175 to 177 °C.

Question: With `Cc1cc2ccn(C)c2c(=O)[nH]1` as the compound, how does the melting point read?
Answer: Its melting point is 189 to 191 °C.

Question: Which melting point does the source give for `CC(C)CNC(=O)c1ccc(N)cc1` here?
Answer: The melting point was 119 to 121 °C.

Question: For `O=C(O)COc1ccc(S(=O)(=O)Cl)cc1Cl`, which melting point is on record?
Answer: Its melting point is 123 to 125 °C.

Question: Which melting point does the source give for `NC(=O)c1cncn1-c1ccccc1` here?
Answer: The melting point was 182 to 184 °C.

Question: For `O=C(O)c1cc(F)c(F)c(S(=O)(=O)Cl)c1`, which melting point is on record?
Answer: Its melting point is 154 to 156 °C.

Question: For `Cc1ccc(Cn2c(N)cc(=O)[nH]c2=O)cc1`, which melting point is on record?
Answer: Its melting point is 279 to 281 °C.

Question: Which melting point does the source give for `CCOC(=O)c1cnn(C)c1-c1ccccc1` here?
Answer: The melting point was 59 to 61 °C.

Question: For `N#CC1(N2CCN(Cc3ccccc3)CC2)CCOCC1`, which melting point is on record?
Answer: The melting point was 105 to 107 °C.

Question: With `COC(=O)c1ccc(CNC(=O)C(C)Cl)cc1` (configuration not stated) as the compound, how does the melting point read?
Answer: The melting point was 96 to 98 °C.

Question: With `NCCNc1ccncc1` as the compound, how does the melting point read?
Answer: The melting point was 118 to 120 °C.

Question: With `O=[N+]([O-])c1ccc(Cl)c(S(=O)(=O)Cl)c1` as the compound, how does the melting point read?
Answer: Its melting point is 85 to 87 °C.

Question: Which melting point does the source give for `CCOC(=O)c1c(C)oc2nc(CCl)[nH]c(=O)c12` here?
Answer: The melting point was 197 to 199 °C.

Question: Which melting point does the source give for `COC(=O)c1occc1CBr` here?
Answer: Its melting point is 50 to 52 °C.

Question: For `O=Cc1csc(-c2ncccn2)n1`, which melting point is on record?
Answer: The melting point was 197 to 199 °C.

Question: Which melting point does the source give for `Cc1oc2nc[nH]c(=O)c2c1C(=O)O` here?
Answer: The melting point was 149 to 151 °C.

Question: With `CCC(C)n1c(S)nnc1-c1ccccc1` (configuration not stated) as the compound, how does the melting point read?
Answer: The melting point was 166 to 168 °C.

Question: For `CC(C)(C)c1cnnc(N)n1`, which melting point is on record?
Answer: Its melting point is 187 to 189 °C.

Question: For `O=C(O)C1Cc2ccccc2CN1C(=O)CCl` (configuration not stated), which melting point is on record?
Answer: The melting point was 153 to 155 °C.

Question: Which melting point does the source give for `Cc1nnc2ccc(Cl)nn12` here?
Answer: Its melting point is 103 to 105 °C.

Question: Which melting point does the source give for `NC(=O)CS(=O)(=O)c1ccc(C(=O)O)cc1` here?
Answer: Its melting point is 255 to 257 °C.

Question: Which melting point does the source give for `CC(C)CS(=O)(=O)CCC(=O)O` here?
Answer: Its melting point is 110 to 112 °C.

Question: Which melting point does the source give for `Nc1nnc(C(=O)NCc2ccccc2)[nH]1` here?
Answer: The melting point was 248 to 250 °C.

From a melting point compilation (Tetko et al.)
